Measurements published in publication PMC10079235 (PLOS Neglected Tropical Diseases, 2023).
Where a name gives a salt, the structure may show the parent alone. Read-outs that look alike come from different tables or passages of the source.

Assays:
[1] = tested on: Cryptosporidium parvum; assay: Anti-cryptosporidial efficacy assay (44-h infection/qRT-PCR); details: for EC50: Cryptosporidium parvum; for On-target (Eon) rate at EC50 / Off-target (Eoff) rate at EC50: MDR1(PTX) cell model; for On-target (Eon) rate at EC50: Eq 2; for Off-target (Eoff) rate at EC50: from Pct changes of EC50 and TC50 (Eq 1); for Action on parasite target (on-target) conclusion: MDR1-transgenic host cell model; for Eoff, proportion of off-parasite-target effect / Eon, proportion of on-parasite-target effect: MDR1(PTX) vs. NC model, Eq 3 and 4
[2] = tested on: MDR1; design: method as in PMID 34648615; details: 300 nM ref 15; cited from earlier work
[3] = tested on: HCT-8 cells; assay: MTS cytotoxicity assay with MDR1 inhibitor elacridar, several HCT-8 derived cell lines; details: 300 nM, NC, MDR1, NC(PTX), NC(NTZ)
Method: If the increase of tolerance to a specified inhibitor in host cells was truly mediated by MDR1, specific inhibition of MDR1 would restore the sensitivity of the host cells to the inhibitor (as indicated by TC50). Additionally, inhibition of MDR1 would not affect the anti-cryptosporidial efficacy (EC50) if the drug that acted only on the parasite target, or partially affect the efficacy (EC50) if the drug that also acted on host cell target. This notion was tested using elacridar, a third generation of MDR1 inhibitor [18, 23–25]. […] We then examined the effect of elacridar on the cytotoxicity and anti-cryptosporidial efficacies of the six inhibitors in the range of TC50 or EC50 concentrations.
Host cell drug tolerance to specified inhibitors was evaluated by 3-(4,5-dimethylthiazol-2-yl)-5-(3-carboxymethoxyphenyl)-2-(4-sulfophenyl)-2H-tetrazolium (MTS) assay. […] Optical density at 490 nm (OD490) was measured using a Synergy LX multi-mode reader (BioTek, Winooski, VT). Drug tolerance was indicated by half-maximal cytotoxic concentrations (TC50 values) calculated by nonlinear regression using 4PL model. Selectivity index (SI) for each compound was determined by the ratio between TC50 and EC50 values (SI = TC50/EC50).

[4] = tested on: HCT-8/WT(NTZ) cells; assay: MTS cytotoxicity (drug tolerance) assay
Method: (§1) Host cell drug tolerance to specified inhibitors was evaluated by 3-(4,5-dimethylthiazol-2-yl)-5-(3-carboxymethoxyphenyl)-2-(4-sulfophenyl)-2H-tetrazolium (MTS) assay. WT and transgenic host cells were seeded in 96-well plates (10,000 cells/well) and cultured for 24 h, followed by the addition of specified compounds at serially diluted concentrations and continued culture for 41 h. After 3 washes with serum-free medium, MTS solution (Saint-Bio, Shanghai, China) was added into the plates (20 μL/well) and incubated at 37°C for 2 h. Optical density at 490 nm (OD490) was measured using a Synergy LX multi-mode reader (BioTek, Winooski, VT). Drug tolerance was indicated by half-maximal cytotoxic concentrations (TC50 values) calculated by nonlinear regression using 4PL model. Selectivity index (SI) for each compound was determined by the ratio between TC50 and EC50 values (SI = TC50/EC50).
(§2) Surviving cells were allowed to recover in drug-free medium for 3–5 d to near confluence (round 1). The selection/recovery cycle were repeated once (round 2). […] Finally, all cells were cultured at the final selection concentrations of PTX or NTZ for ≥7 d, followed by culture in drug-free medium for 14 d. At this time point, cells were used for cytotoxicity and efficacy assays or cryopreserved in a liquid nitrogen tank. The resulting cell lines after PTX or NTZ selection were designated as WT(PTX), NC(PTX) and MDR1(PTX), or WT(NTZ), NC(NTZ) and MDR1(NTZ), respectively (Tables 1 and S2).

[5] = tested on: HCT-8/NC(NTZ) cells; assay: MTS cytotoxicity (drug tolerance) assay
Method: as §1, §2

[6] = tested on: HCT-8/MDR1(PTX) cells; details: for Pct change of TC50 (vs NC): MDR1(PTX) vs NC cells
Method: as §1
(§3) Surviving cells were allowed to recover in drug-free medium for 3–5 d to near confluence (round 1). The selection/recovery cycle were repeated once (round 2). […] The resulting cell lines after PTX or NTZ selection were designated as WT(PTX), NC(PTX) and MDR1(PTX), or WT(NTZ), NC(NTZ) and MDR1(NTZ), respectively (Tables 1 and S2).

[7] = tested on: HCT-8/NC cells; assay: MTS cytotoxicity (drug tolerance) assay; details: no drug selection
[8] = tested on: HCT-8/MDR1 cells; details: human, 41 h
[9] = tested on: HCT-8/NC(PTX) cells; assay: MTS cytotoxicity (drug tolerance) assay
Method: as §1, §3

[10] = tested on: HCT-8/WT(PTX) cells; assay: MTS cytotoxicity (drug tolerance) assay
Method: as §1, §3

[11] = tested on: HCT-8/MDR1(NTZ) cells; assay: MTS cytotoxicity (drug tolerance) assay
Method: as §1, §3

[12] = tested on: HCT-8/WT cells; assay: MTS cytotoxicity (drug tolerance) assay; details: WT cells, no drug selection; MTS assay
Method: as §1

[13] = tested on: HCT-8/NC cells; details: human, 41 h
[14] = tested on: HCT-8/MDR1 cells; assay: MTS cytotoxicity (drug tolerance) assay; details: MDR1 cells, no drug selection; MTS assay
[15] = MDR1, read-out: Antiparasitic efficacy (EC50), C. parvum cultured in MDR1(PTX) host cells
[16] = read-out: Antiparasitic efficacy (EC50), C. parvum cultured in NC host cells
[17] = read-out: Antiparasitic efficacy (EC50), C. parvum cultured in WT host cells

With COc1cc2c(cc1OC)CN(CCc1ccc(NC(=O)c3cccc4c(=O)c5cccc(OC)c5[nH]c34)cc1)CC2 [elacridar] as the molecule, how does the “Effect on growth of C. parvum” value ([1]; 300 nM, cultured with NC, MDR1(PTX) and MDR1(NTZ) cells) read?
Its value is “no or little effect”.

And the “Inhibition on the activity of MDR1” value [2]?
The value was “strong inhibition”.

What about the “Effect on growth of host cells” value [3] of the same molecule?
Its value is “no or little effect”.

For CC[C@]1(O)C[C@H]2CN(CCc3c([nH]c4ccccc34)[C@@](C(=O)OC)(c3cc4c(cc3OC)N(C=O)[C@H]3[C@@](O)(C(=O)OC)[C@H](OC(C)=O)[C@]5(CC)C=CCN6CC[C@]43[C@@H]65)C2)C1 [Vincristine, Vincristine sulphate], which TC50 ([4]; WT(NTZ) cells, after selection by NTZ) is on record?
The TC50 was 7.04 µM.

And the TC50 ([5]; NC(NTZ) cells, after selection by NTZ)?
The TC50 was 6.87 µM.

What about the TC50 ([6]; MDR1(PTX) cells, after selection by PTX) of the same molecule?
The TC50 was 21.51 µM.

And the “Pct change of TC50 (vs NC)” value [6]?
Its value is 200.8%.

What about the EC50 [1, 15] of the same molecule?
Its EC50 is 2.77 µM.

And the EC50 [1, 16]?
Its EC50 is 1.58 µM.

And the EC50 [1, 17]?
The EC50 was 1.64 µM.

What about the “On-target (Eon) rate at EC50” value [1] of the same molecule?
Its value is 62.5%.

What about the “On-target (Eon) rate at EC50” value ([1]; listed as VCT) of the same molecule?
The value was 62.5%.

What about the “Off-target (Eoff) rate at EC50” value [1] of the same molecule?
The value was 37.5%.

And the “Action on parasite target (on-target) conclusion” value [1]?
Its value is “partially on-target”.

And the “Eoff, proportion of off-parasite-target effect” value (shortened to “Eoff, proportion”) ([1]; at EC10)?
Its value is 38.10%.

What about the “Eon, proportion of on-parasite-target effect” value (“Eon, proportion” below) ([1]; at EC10) of the same molecule?
Its value is 61.90%.

And the “Eon, proportion” value ([1]; at EC10, listed as VCT)?
Its value is 61.9%.

What about the “Eoff, proportion” value ([1]; at EC20) of the same molecule?
Its value is 38.00%.

And the “Eon, proportion” value ([1]; at EC20)?
The value was 62.00%.

And the “Eoff, proportion” value ([1]; at EC30)?
Its value is 37.90%.

What about the “Eon, proportion” value ([1]; at EC30) of the same molecule?
Its value is 62.10%.

And the “Eoff, proportion” value ([1]; at EC40)?
The value was 37.80%.

And the “Eon, proportion” value ([1]; at EC40)?
Its value is 62.20%.

And the “Eoff, proportion” value ([1]; at EC50)?
Its value is 37.7%.

What about the “Eon, proportion” value ([1]; at EC50) of the same molecule?
The value was 62.3%.

And the “Eoff, proportion” value ([1]; at EC60)?
The value was 37.60%.

What about the “Eon, proportion” value ([1]; at EC60) of the same molecule?
Its value is 62.40%.

What about the “Eoff, proportion” value ([1]; at EC70) of the same molecule?
Its value is 37.50%.

And the “Eon, proportion” value ([1]; at EC70)?
The value was 62.50%.

What about the “Eoff, proportion” value ([1]; at EC80) of the same molecule?
The value was 37.30%.

What about the “Eon, proportion” value ([1]; at EC80) of the same molecule?
Its value is 62.70%.

And the “Eoff, proportion” value ([1]; at EC90)?
The value was 37.10%.

What about the “Eon, proportion” value ([1]; at EC90) of the same molecule?
Its value is 62.90%.

What about the “Eon, proportion” value ([1]; at EC90, listed as VCT) of the same molecule?
The value was 62.9%.

What about the TC50 [7] of the same molecule?
The TC50 was 7.15 µM.

And the TC50 [8]?
The TC50 was 12.61 µM.

What about the TC50 ([9]; NC(PTX) cells, after selection by PTX) of the same molecule?
The TC50 was 7.29 µM.

And the TC50 ([10]; WT(PTX) cells, after selection by PTX)?
Its TC50 is 6.96 µM.

And the TC50 ([11]; human, 41 h)?
The TC50 was 12.38 µM.

What about the TC50 [12] of the same molecule?
The TC50 was 6.72 µM.

Which TC50 ([4]; human, 41 h) does the source give for COc1cccc2c1C(=O)c1c(O)c3c(c(O)c1C2=O)C[C@@](O)(C(=O)CO)C[C@@H]3O[C@H]1C[C@H](N)[C@H](O)[C@H](C)O1 [Doxorubicin, Doxorubicin HCl] here?
Its TC50 is 4.18 µM.

What about the TC50 ([5]; human, 41 h) of the same molecule?
The TC50 was 4.21 µM.

What about the “Pct change of TC50 (vs NC)” value [6] of the same molecule?
Its value is 140.3%.

And the EC50 [1, 15]?
The EC50 was 1.95 µM.

What about the EC50 [1, 16] of the same molecule?
Its EC50 is 1.19 µM.

What about the EC50 [1, 17] of the same molecule?
The EC50 was 1.18 µM.

What about the “On-target (Eon) rate at EC50” value [1] of the same molecule?
Its value is 54.5%.

What about the “On-target (Eon) rate at EC50” value ([1]; listed as DXR) of the same molecule?
The value was 54.5%.

And the “Off-target (Eoff) rate at EC50” value [1]?
The value was 45.5%.

And the “Action on parasite target (on-target) conclusion” value [1]?
Its value is “partially on-target”.

What about the “Eoff, proportion” value ([1]; at EC10) of the same molecule?
The value was 26.90%.

What about the “Eon, proportion” value ([1]; at EC10) of the same molecule?
Its value is 73.10%.

And the “Eoff, proportion” value ([1]; at EC20)?
The value was 32.80%.

And the “Eon, proportion” value ([1]; at EC20)?
Its value is 67.20%.

And the “Eoff, proportion” value ([1]; at EC30)?
Its value is 37.30%.

And the “Eon, proportion” value ([1]; at EC30)?
Its value is 62.70%.

And the “Eoff, proportion” value ([1]; at EC40)?
Its value is 41.30%.

What about the “Eon, proportion” value ([1]; at EC40) of the same molecule?
Its value is 58.70%.

And the “Eoff, proportion” value ([1]; at EC50)?
The value was 45.3%.

And the “Eon, proportion” value ([1]; at EC50)?
Its value is 54.7%.

What about the “Eoff, proportion” value ([1]; at EC60) of the same molecule?
The value was 49.60%.

And the “Eon, proportion” value ([1]; at EC60)?
Its value is 50.40%.

And the “Eoff, proportion” value ([1]; at EC80)?
The value was 61.40%.

What about the “Eon, proportion” value ([1]; at EC80) of the same molecule?
The value was 38.60%.

And the “Eoff, proportion” value ([1]; at EC90)?
Its value is 72.90%.

What about the “Eon, proportion” value ([1]; at EC90) of the same molecule?
The value was 27.10%.

What about the TC50 ([9]; human, 41 h) of the same molecule?
Its TC50 is 4.15 µM.

What about the TC50 ([10]; human, 41 h) of the same molecule?
The TC50 was 4.24 µM.

And the TC50 ([11]; MDR1(NTZ) cells, after selection by NTZ)?
The TC50 was 6.90 µM.

And the TC50 [13]?
The TC50 was 4.34 µM.

What about the TC50 [12] of the same molecule?
The TC50 was 4.03 µM.

What about the TC50 [14] of the same molecule?
Its TC50 is 6.67 µM.
